Assay results published in patent US7973219B2, “Method for producing transgenic plants resistant to weed control compounds which disrupt the porphyrin pathways of plants” (Sumitomo Chemical Company, Limited, priority 1998, dated 2011).

Experiments:
[1] = system: E. coli BT3/pACYCSP+pHEMF strain; experiment: Growth of E. coli BT3/pACYCSP+pHEMF (E. coli hemF) with herbicidal compound; format: cell-based, Escherichia coli; conditions: 18 hours culture, Table 14
From the text: According to the description of Gibson, L. C. D. et al., Proc. Natl. Acad. Sci. USA, 92; p 1941 (1995), the DNA fragment containing bchH gene prepared in Example 1 was digested with the restriction enzymes NdeI and BglII. The resultant DNA fragment was inserted between NdeI restriction site and BamHI restriction site of expression vector pET11a (manufactured by Stratagene) to obtain plasmid pETBCH (FIG. 1). This plasmid pETBCH was introduced into E. coli BL21(DE3) strain competent cells (manufactured by Stratagene) according to the manual attached to the competent cells to obtain E. coli BL21(DE3)/pETBCH strain. The strain was inoculated into 1.5 ml LB liquid culture medium (1% tryptone, 0.5% yeast extract, 0.5% NaCl) containing 100 μg/ml ampicillin in a tube (14×10 mm), and the tube was covered with aluminum foil (hereinafter referred to as dark conditions), cultured with shaking at 37° C. under light of fluorescent lamp (about 8000 lux). When the absorbance at 600 nm of the liquid culture medium became about 0.6, isopropyl β-D-thiogalactopyranoside (IPTG) was added to the liquid culture medium so that the final concentration was 0.4 mM, and the culture was continued for about additional 20 hours. […] In contrast to this, when E. coli BL21(DE3)/pETBCH strain was cultured according to the same manner (with IPTG) except that the tube was not covered with aluminum foil (hereinafter referred to as light conditions), E. coli grew and turned red as above.
The DNA fragment containing hemF gene amplified by the method described in Example 26 was digested with restriction enzymes FbaI and PstI, and inserted between BamHI restriction site and PstI restriction site of commercially available plasmid […] (manufactured by Takara Shuzo Co., Ltd.) to construct plasmid pHEMF (FIG. 16).
The plasmid pHEMF and pTV118N were introduced into E. coli BT3/pACYCSP strain prepared in Example 3 respectively according to the method described in Hanahan, D. J., Mol. Biol., 166; p 557 (1983). […]
These E. coli strains were inoculated into YPT medium containing 10 or 1 ppm of the PPO inhibitory-type herbicidal compound represented by Structure 8, 100 μg/ml ampicillin, 15 μg/ml chloramphenicol, 10 μg/ml kanamycin, 10 μg/ml hemin and 50 μg/ml aminolevulinic acid, cultured under dark conditions or light conditions according to the same manner as in Example 2. Then, 18 hours after initiation of culture, the absorbance of liquid culture medium was measured at 600 nm. By taking the absorbance of the medium without the herbicidal compound as I, the relative value of the absorbance of the medium containing the herbicidal compound was calculated.

[2] = system: E. coli BT3/pACYCSP+pHASYS strain; experiment: Growth of E. coli BT3/pACYCSP+pHASYS with herbicidal compound; format: cell-based, Escherichia coli; conditions: 1 ppm, 18 hours culture, Table 15
From the text: According to the description of Gibson, L. C. D. et al., Proc. Natl. Acad. Sci. USA, 92; p 1941 (1995), the DNA fragment containing bchH gene prepared in Example 1 was digested with the restriction enzymes NdeI and BglII. The resultant DNA fragment was inserted between NdeI restriction site and BamHI restriction site of expression vector pET11a (manufactured by Stratagene) to obtain plasmid pETBCH (FIG. 1). This plasmid pETBCH was introduced into E. coli BL21(DE3) strain competent cells (manufactured by Stratagene) according to the manual attached to the competent cells to obtain E. coli BL21(DE3)/pETBCH strain. The strain was inoculated into 1.5 ml LB liquid culture medium (1% tryptone, 0.5% yeast extract, 0.5% NaCl) containing 100 μg/ml ampicillin in a tube (14×10 mm), and the tube was covered with aluminum foil (hereinafter referred to as dark conditions), cultured with shaking at 37° C. under light of fluorescent lamp (about 8000 lux). When the absorbance at 600 nm of the liquid culture medium became about 0.6, isopropyl β-D-thiogalactopyranoside (IPTG) was added to the liquid culture medium so that the final concentration was 0.4 mM, and the culture was continued for about additional 20 hours. […]

C#CCOc1cc(N2C(=O)C3=C(CCCC3)C2=O)c(F)cc1Cl [Structure 8]
Relative absorbance ([1]; in the dark, 1 ppm): 0.95
Relative absorbance ([1]; in the dark, 10 ppm): 0.94
Relative absorbance ([1]; in the light, 1 ppm): 1.0
Relative absorbance ([1]; in the light, 10 ppm): 0.48
Relative absorbance ([2]; in the dark): 0.96
Relative absorbance ([2]; in the light): 0.65
